Test results published in patent publication US10669272B2, “Substituted naphthyridinone compounds useful as T cell activators” (BRISTOL-MYERS SQUIBB COMPANY, priority 2018, dated 2020).
pEC50, pIC50: −log10 of the molar value. Counter-ions that a name gives are not always drawn. Like-named read-outs stand apart in the source and are kept apart here.

Key:
human DGKζ = target: T1, human DGKζ (Homo sapiens, UniProt Q13574); experiment: DGKζ LIPGLO assay (extruded liposome substrate), in vitro DGK inhibition; assay type: biochemical; settings: read-out: DGKz LIPGLO IC50
T1 construct: TVMV protease cleavage site (C); Hexa-His (C); made in house; host or cells: Sf9 insect cells (baculovirus, Bac-to-Bac)
T1 sequence (Q13574 with tags, fused parts or gaps isoform Q13574-4): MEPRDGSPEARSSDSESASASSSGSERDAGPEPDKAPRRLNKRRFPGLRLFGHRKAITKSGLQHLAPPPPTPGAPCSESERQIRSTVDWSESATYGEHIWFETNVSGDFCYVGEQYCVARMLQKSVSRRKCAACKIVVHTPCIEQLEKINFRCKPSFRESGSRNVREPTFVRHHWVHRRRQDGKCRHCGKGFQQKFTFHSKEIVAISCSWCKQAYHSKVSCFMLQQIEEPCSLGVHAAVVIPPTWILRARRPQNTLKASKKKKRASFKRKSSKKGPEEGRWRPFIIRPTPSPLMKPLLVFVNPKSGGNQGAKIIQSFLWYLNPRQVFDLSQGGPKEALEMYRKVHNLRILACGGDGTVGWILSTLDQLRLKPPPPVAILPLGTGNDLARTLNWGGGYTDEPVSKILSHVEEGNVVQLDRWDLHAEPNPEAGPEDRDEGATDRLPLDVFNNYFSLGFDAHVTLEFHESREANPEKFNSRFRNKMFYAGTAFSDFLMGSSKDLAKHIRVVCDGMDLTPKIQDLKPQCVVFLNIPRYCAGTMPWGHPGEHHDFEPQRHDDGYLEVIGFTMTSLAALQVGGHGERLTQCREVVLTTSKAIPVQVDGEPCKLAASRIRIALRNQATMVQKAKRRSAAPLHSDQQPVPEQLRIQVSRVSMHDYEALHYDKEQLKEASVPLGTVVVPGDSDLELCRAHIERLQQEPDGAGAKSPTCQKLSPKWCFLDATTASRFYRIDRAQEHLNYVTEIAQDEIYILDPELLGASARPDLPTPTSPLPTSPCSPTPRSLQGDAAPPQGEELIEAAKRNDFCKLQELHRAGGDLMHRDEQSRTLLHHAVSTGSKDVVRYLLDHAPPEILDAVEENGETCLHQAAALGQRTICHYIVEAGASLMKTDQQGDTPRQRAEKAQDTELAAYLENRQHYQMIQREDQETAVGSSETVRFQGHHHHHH

human DGKα = target: T2, human DGKα (Homo sapiens, UniProt P23743); experiment: DGKα LIPGLO assay (extruded liposome substrate), in vitro DGK inhibition; assay type: biochemical; settings: read-out: DGKa LIPGLO IC50
T2 construct: TVMV protease cleavage site (C); Hexa-His (C); made in house; host or cells: Sf9 insect cells (baculovirus, Bac-to-Bac)
T2 sequence (P23743 with tags, fused parts or gaps): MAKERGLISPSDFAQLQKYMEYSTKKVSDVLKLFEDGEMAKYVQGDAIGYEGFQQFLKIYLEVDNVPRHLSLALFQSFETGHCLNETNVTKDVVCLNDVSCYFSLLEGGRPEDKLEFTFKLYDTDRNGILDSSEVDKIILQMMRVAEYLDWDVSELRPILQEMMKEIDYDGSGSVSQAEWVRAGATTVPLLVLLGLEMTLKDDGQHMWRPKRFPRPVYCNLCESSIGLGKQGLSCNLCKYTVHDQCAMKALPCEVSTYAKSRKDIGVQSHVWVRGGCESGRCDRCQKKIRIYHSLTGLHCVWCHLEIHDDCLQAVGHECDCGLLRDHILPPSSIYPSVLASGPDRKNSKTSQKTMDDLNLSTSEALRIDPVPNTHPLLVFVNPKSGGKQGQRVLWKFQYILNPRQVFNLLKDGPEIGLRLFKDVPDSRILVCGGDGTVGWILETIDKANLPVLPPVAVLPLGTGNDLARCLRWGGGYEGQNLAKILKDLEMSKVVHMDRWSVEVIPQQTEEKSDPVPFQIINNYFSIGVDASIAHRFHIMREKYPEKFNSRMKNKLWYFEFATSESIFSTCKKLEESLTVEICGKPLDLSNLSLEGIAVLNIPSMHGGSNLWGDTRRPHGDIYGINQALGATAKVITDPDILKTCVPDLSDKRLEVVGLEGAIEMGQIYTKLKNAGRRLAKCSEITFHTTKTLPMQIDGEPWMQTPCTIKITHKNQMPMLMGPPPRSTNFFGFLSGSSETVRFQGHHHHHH

Human venous whole blood = experiment: Human whole blood IFN-γ assay; assay type: cell-based; settings: human whole blood, read-out: INFg Whole Blood Normalized Agonist EC50;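 also: blood from healthy donors exposed to compound for 1 h before stimulation with anti-CD3 and anti-CD28 at 1 µg/mL each, IFN-γ quantified in supernatant by AlphaLISA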
Experimental: Human Whole Blood IFN-γ Assay
Human venous whole blood (22.5 μL per well), obtained from healthy donors, was pre-treated with compounds for one hour at 37° C. in a humidified 95% air/5% CO2 incubator. The blood was stimulated with 2.5 μL anti-human CD3 and anti-CD28 mAb at a final concentration of 1 μg/mL each for 24 hours at 37° C. IFN-γ in the supernatants was measured using AlphLISA kit (Cat # AL217).

[1] = Homo sapiens, 24 h, normalized to 3 μM reference compound with anti-CD3 plus anti-CD28 as 100% activation
[2] = normalized to 3 μM reference compound with anti-CD3 plus anti-CD28 as 100% activation
[3] = anti-CD3 plus anti-CD28, 24 hours, 3 μM reference compound = 100% activation
[4] = Homo sapiens, 24 h, anti-CD3 plus anti-CD28, 24 hours, 3 μM reference compound = 100% activation

SMILES	pIC50 (human DGKζ; liposome (LIPGLO) assay)	pIC50 (human DGKα; liposome (LIPGLO) assay)	pEC50 (Human venous whole blood; [1])	pEC50 (Human venous whole blood; [2])	pIC50 (human DGKζ; DGKζ liposome (LIPGLO) assay)	pIC50 (human DGKα; DGKα liposome (LIPGLO) assay)	pEC50 (Human venous whole blood; [3])	pEC50 (Human venous whole blood; [4])
C[C@@H]1CN(c2cc(=O)n(C)c3ccc(C#N)nc23)[C@@H](C)CN1Cc1noc2ccccc12 [Example 1433]	5.55	5.60	4.89	–	–	–	–	–
CC[C@H]1CN(C(C)c2ccc(OC(F)F)cc2)[C@H](C)CN1c1cc(=O)n(C)c2ccc(C#N)nc12 (single isomer, unassigned) [Example 1379]	6.80	8.06	–	6.29	–	–	–	–
CC[C@H]1CN(C(C)c2cc(F)cc(OC(F)(F)F)c2)[C@H](C)CN1c1cc(=O)n(C)c2ccc(C#N)nc12 (stereo partly drawn) [Example 1384]	6.59	5.03	5.10	–	–	–	–	–
C[C@@H]1CN(c2c(F)c(=O)n(C)c3ccc(C#N)nc23)[C@@H](C)CN1C(c1ccc(F)cc1)c1cccc(F)c1 (single isomer, unassigned) [Example 331]	5.72	5.77	–	4.70	–	–	–	–
CC[C@H]1CN(C(C)c2ccc(OC(F)(F)F)cc2)[C@H](COC)CN1c1cc(=O)n(C)c2ccc(C#N)nc12 (single isomer, unassigned) [Example 1409]	6.09	5.04	5.64	–	–	–	–	–
C[C@@H]1CN(c2cc(=O)n(C)c3ccc(C#N)nc23)[C@@H](C)CN1Cc1cnoc1 [Example 1428]	4.28	4.47	4.70	–	–	–	–	–
C[C@@H]1CN(c2cc(=O)n(C)c3ccc(C#N)nc23)[C@@H](C)CN1C(c1ccc(F)cc1)c1cccc(C(F)F)n1 (single isomer, unassigned) [Example 697]	7.23	6.13	–	6.70	–	–	–	–
C[C@@H]1CN(c2cc(=O)n(C)c3ccc(C#N)nc23)[C@@H](C)CN1C(c1ccc(F)cc1)c1cc(C(C)(C)C)on1 (single isomer, unassigned) [Example 732]	–	–	–	–	6.82	7.36	6.36	–
CC(c1c(F)cccc1F)N1CCN(c2c(C#N)c(=O)n(C)c3ccc(C#N)nc23)C[C@H]1C (single isomer, unassigned) [Example 951]	–	–	–	–	5.01	5.43	4.70	–
COc1cc(F)c(C(C)N2C[C@H](C)N(c3cc(=O)n(C)c4ccc(C#N)nc34)C[C@H]2C)cc1OC (single isomer, unassigned) [Example 1246]	7.00	4.96	–	5.68	–	–	–	–
Cc1cc(C(C)N2C[C@H](C)N(c3cc(=O)n(C)c4ccc(C#N)nc34)C[C@H]2C)no1 (single isomer, unassigned) [Example 649]	5.47	5.44	4.70	–	–	–	–	–
C[C@@H]1CN(c2cc(=O)n(C)c3ccc(C#N)nc23)[C@@H](C)CN1C(c1ccc(F)cc1)c1ccon1 (single isomer, unassigned) [Example 706]	4.92	5.89	–	5.54	–	–	–	–
Cn1c(=O)c(C#N)c(N2CCN(C(c3ccc(F)cc3)c3ccc(F)cc3)C(CF)C2)c2nc(Br)ccc21 (stereo not drawn) [Example 9, 4-(4-(bis(4-fluorophenyl)methyl)-3-(fluoromethyl)piperazin-1-yl)-6-bromo-1-methyl-2-oxo-1,2-dihydro-1,5-naphthyridine-3-carbonitrile]	5.02	5.68	5.80	–	–	–	–	–
Cc1ccc(C(c2ccc(C#N)cc2)N2C[C@H](C)N(c3cc(=O)n(C)c4ccc(C#N)nc34)C[C@H]2C)cc1 (single isomer, unassigned) [Example 310, TFA salt]	5.80	5.89	5.72	–	–	–	–	–
C[C@@H]1CN(c2c(C#N)c(=O)n(C)c3ccc(C#N)nc23)CCN1C(c1ccc(F)cc1)c1cnn(C)c1 (stereo partly drawn) [Example 1017]	–	–	–	–	5.08	5.14	5.48	–
COC(=O)c1ccc(C(C)N2CCN(c3c(C#N)c(=O)n(C)c4ccc(C#N)nc34)C[C@H]2C)cc1 (stereo partly drawn) [Example 981]	–	–	–	–	4.55	5.68	–	4.89
CC(c1cc(C2CC2)on1)N1C[C@H](C)N(c2cc(=O)n(C)c3ccc(C#N)nc23)C[C@H]1C (single isomer, unassigned) [Example 1282]	5.68	5.85	–	5.28	–	–	–	–
CC[C@H]1CN(C(c2ccc(F)cc2)c2cscn2)[C@H](CC)CN1c1cc(=O)n(C)c2ccc(C#N)nc12 (single isomer, unassigned) [Example 1070]	6.74	7.89	–	5.96	–	–	–	–
CCC(c1cc(Cl)cc2c1OCC2)N1C[C@H](C)N(c2cc(=O)n(C)c3ccc(C#N)nc23)C[C@H]1C (single isomer, unassigned) [Example 356]	6.38	< 3.60	4.70	–	–	–	–	–

SMILES	pIC50 (human DGKζ; liposome (LIPGLO) assay)	pIC50 (human DGKα; liposome (LIPGLO) assay)	pEC50 (Human venous whole blood; [1])	pEC50 (Human venous whole blood; [2])	pIC50 (human DGKζ; DGKζ liposome (LIPGLO) assay)	pIC50 (human DGKα; DGKα liposome (LIPGLO) assay)	pEC50 (Human venous whole blood; [3])	pEC50 (Human venous whole blood; [4])
Cc1cccc(C(c2cccc(F)c2)N2C[C@H](C)N(c3cc(=O)n(C)c4ccc(C#N)nc34)C[C@H]2C)n1 (single isomer, unassigned) [Example 470]	5.70	4.89	6.43	–	–	–	–	–
CC(c1ccc(C2CC2)cc1)N1C[C@H](C)N(c2cc(=O)n(C)c3ccc(C#N)nc23)C[C@H]1C (single isomer, unassigned) [Example 1215]	6.17	6.14	–	5.14	–	–	–	–
COC[C@@H]1CN(c2cc(=O)n(C)c3ccc(C#N)nc23)[C@@H](C)CN1C(C)c1ccc(F)cc1 (single isomer, unassigned) [Example 1160]	5.77	5.82	5.96	–	–	–	–	–
C[C@@H]1CN(c2c(C#N)c(=O)n(C)c3ccc(C#N)nc23)CCN1Cc1cccc(F)c1 [Example 1005]	–	–	–	–	5.11	6.06	–	4.70
CC[C@H]1CN(C(C)c2ccc(OC)cc2)[C@H](CC)CN1c1cc(=O)n(C)c2ccc(C#N)nc12 (single isomer, unassigned) [Example 1367]	5.54	6.77	–	5.72	–	–	–	–
C[C@@H]1CN(c2cc(=O)n(C)c3ccc(C#N)nc23)[C@@H](C)CN1Cc1nnnn1C1CC1 [Example 1423]	4.36	4.30	4.70	–	–	–	–	–
CC[C@H]1CN(C(C)c2ccc3c(c2)OC(F)(F)O3)[C@H](CC)CN1c1cc(=O)n(C)c2ccc(C#N)nc12 (single isomer, unassigned) [Example 1369]	6.12	5.85	–	5.89	–	–	–	–
Cc1ccc(C(c2ccc(F)cc2)N2C[C@H](C)N(c3c(F)c(=O)n(C)c4ccc(C#N)nc34)C[C@H]2C)cc1 (stereo partly drawn) [Example 335, 7-fluoro-8-((2S,5R)-4-((4-fluorophenyl)(p-tolyl)methyl)-2,5-dimethylpiperazin-1-yl)-5-methyl-6-oxo-5,6-dihydro-1,5-naphthyridine-2-carbonitrile]	5.60	5.92	–	5.92	–	–	–	–
CC[C@@H]1CN(c2c(F)c(=O)n(C)c3ccc(C#N)nc23)[C@@H](C)CN1C(C)c1ccc(OC(F)(F)F)cc1 (single isomer, unassigned) [Example 1328]	5.82	5.31	5.47	–	–	–	–	–
CC[C@@H]1CN(c2cc(=O)n(C)c3ccc(C#N)nc23)[C@@H](CC)CN1Cc1cc(F)c(F)c(F)c1 [Example 1354]	6.08	5.80	5.92	–	–	–	–	–
C[C@@H]1CN(c2cc(=O)n(C)c3ccc(C#N)nc23)[C@@H](C)CN1C(c1c(F)cc(O)cc1F)C(F)(F)F (single isomer, unassigned) [Example 627]	5.23	5.27	5.29	–	–	–	–	–
C[C@@H]1CN(c2cc(=O)n(C)c3ccc(C#N)nc23)[C@@H](C)CN1Cc1ccc(OC(F)(F)F)cc1 [Example 609]	4.89	7.68	5.66	–	–	–	–	–
CC[C@H]1CN(C(c2ccc(F)cc2)c2cocn2)[C@H](CC)CN1c1cc(=O)n(C)c2ccc(C#N)nc12 (single isomer, unassigned) [Example 1068]	7.04	7.37	–	6.60	–	–	–	–
C[C@@H]1CN(c2cc(=O)n(C)c3ccc(C#N)nc23)[C@@H](C)CN1CC1CCOCC1 [Example 623]	< 3.60	3.89	4.70	–	–	–	–	–
CC[C@@H]1CN(c2cc(=O)n(C)c3ccc(C#N)nc23)[C@@H](C)CN1C(c1ccc(OC(F)(F)F)cc1)c1ccccn1 (single isomer, unassigned) [Example 340]	6.66	6.49	7.10	–	–	–	–	–
CCC(c1ccc(OCCC2CC2)cc1)N1C[C@H](C)N(c2cc(=O)n(C)c3ccc(C#N)nc23)C[C@H]1C (single isomer, unassigned) [Example 1445]	5.44	5.27	–	5.28	–	–	–	–
CC(c1ccc(C2CC2)cc1F)N1C[C@H](C)N(c2cc(=O)n(C)c3ccc(C#N)nc23)C[C@H]1C (single isomer, unassigned) [Example 1201]	5.47	4.89	5.25	–	–	–	–	–
CCC(c1ccc(C2CC2)cc1F)N1C[C@H](C)N(c2cc(=O)n(C)c3ccc(C#N)nc23)C[C@H]1C (stereo partly drawn) [Example 1218]	7.16	7.17	6.49	–	–	–	–	–
CC[C@@H]1CN(c2cc(=O)n(C)c3ccc(C#N)nc23)[C@@H](C)CN1C(C)c1ccc(Cl)cc1F (single isomer, unassigned) [Example 1352]	7.80	6.92	7.55	–	–	–	–	–
